Measured values as given in US12384797B2, “Thioeno[3,2-b] pyridin-7-amine compounds for treating familial dysautonomia” (PTC THERAPEUTICS, INC., priority 2019, dated 2025).

Test system: Elongator complex protein 1 (ELP1, also referred to as IKBKAP)
Assay: IKBKAP-HTRF assay (IKBKAP protein in lysates of FD patient-derived fibroblasts)
Format: cell-based, human
Conditions: 48 hours incubation, 7-point concentration curve
How it was run: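 Sandwich HTRF with two labelled anti-IKAP antibodies (overnight, 4 °C) measured IKBKAP in lysates of FD patient fibroblasts. Cells were exposed to compound for 48 h at 37 °C (7-point curve, 3.16-fold steps, triplicates). EC2x is the dose doubling IKBKAP versus DMSO control; MFI is sample ΔF divided by vehicle ΔF.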

Structure (SMILES)	EC2x for IKBKAP protein expression (concentration producing two times the amount of IKBKAP protein vs DMSO vehicle control)	MFI (maximum fold increase in IKBKAP protein abundance relative to the vehicle control)
Cc1c(C[C@@H](N)CC(C)C)sc2c(NCc3nccs3)cc(Cl)nc12 [Compound 68, 2-[(2S)-2-amino-4-methylpentyl]-5-chloro-3-methyl-N-[(1,3-thiazol-2-yl)methyl]thieno[3,2-b]pyridin-7-amine]	**** (between >0.005 μM and ≤0.02 μM is indicated by four stars (****))	***** (>4.9 is indicated by five stars (*****))
N[C@@H](CF)Cc1sc2c(NCc3nccs3)cc(Cl)nc2c1Br [Compound 70, 2-[(2R)-2-amino-3-fluoropropyl]-3-bromo-5-chloro-N-[(1,3-thiazol-2-yl)methyl]thieno[3,2-b]pyridin-7-amine]	***** (≤0.005 μM is indicated by five stars (*****))	***** (>4.9 is indicated by five stars (*****))
N[C@@H](CO)Cc1sc2c(NCc3nccs3)cc(Cl)nc2c1Br [Compound 71, (2R)-2-amino-3-(3-bromo-5-chloro-7-{[(1,3-thiazol-2-yl)methyl]amino}thieno[3,2-b]pyridin-2-yl)propan-1-ol]	***** (≤0.005 μM is indicated by five stars (*****))	***** (>4.9 is indicated by five stars (*****))
C=C[C@H](N)Cc1sc2c(NCc3nccs3)cc(Cl)nc2c1Br [Compound 72, 2-[(2R)-2-aminobut-3-en-1-yl]-3-bromo-5-chloro-N-[(1,3-thiazol-2-yl)methyl]thieno[3,2-b]pyridin-7-amine]	***** (≤0.005 μM is indicated by five stars (*****))	***** (>4.9 is indicated by five stars (*****))
CC[C@H](N)Cc1sc2c(NCc3cccs3)cc(Cl)nc2c1Br [Compound 73, 2-[(2S)-2-aminobutyl]-3-bromo-5-chloro-N-[(thiophen-2-yl)methyl]thieno[3,2-b]pyridin-7-amine]	***** (≤0.005 μM is indicated by five stars (*****))	***** (>4.9 is indicated by five stars (*****))
N[C@@H](CCF)Cc1sc2c(NCc3cccs3)cc(Cl)nc2c1Br [Compound 74, 2-[(2S)-2-amino-4-fluorobutyl]-3-bromo-5-chloro-N-[(thiophen-2-yl)methyl]thieno[3,2-b]pyridin-7-amine]	***** (≤0.005 μM is indicated by five stars (*****))	***** (>4.9 is indicated by five stars (*****))
N[C@@H](CF)Cc1sc2c(NCc3cccs3)cc(Cl)nc2c1Br [Compound 76, 2-[(2R)-2-amino-3-fluoropropyl]-3-bromo-5-chloro-N-[(thiophen-2-yl)methyl]thieno[3,2-b]pyridin-7-amine]	***** (≤0.005 μM is indicated by five stars (*****))	***** (>4.9 is indicated by five stars (*****))
CC[C@H](N)Cc1sc2c(NCc3nccs3)cc(Cl)nc2c1Br [Compound 78, 2-[(2S)-2-aminobutyl]-3-bromo-5-chloro-N-[(1,3-thiazol-2-yl)methyl]thieno[3,2-b]pyridin-7-amine]	***** (≤0.005 μM is indicated by five stars (*****))	***** (>4.9 is indicated by five stars (*****))
CC(C)C[C@H](N)Cc1sc2c(NCc3nccs3)cc(Cl)nc2c1Cl [Compound 79, 2-[(2S)-2-amino-4-methylpentyl]-3,5-dichloro-N-[(1,3-thiazol-2-yl)methyl]thieno[3,2-b]pyridin-7-amine]	***** (≤0.005 μM is indicated by five stars (*****))	***** (>4.9 is indicated by five stars (*****))
Cc1c(C[C@@H](N)CF)sc2c(NCc3ccco3)cc(Cl)nc12 [Compound 81, 2-[(2R)-2-amino-3-fluoropropyl]-5-chloro-N-[(furan-2-yl)methyl]-3-methylthieno[3,2-b]pyridin-7-amine]	***** (≤0.005 μM is indicated by five stars (*****))	***** (>4.9 is indicated by five stars (*****))
CC[C@H](N)Cc1sc2c(NCc3nccs3)cc(Cl)nc2c1Cl [Compound 82, 2-[(2S)-2-aminobutyl]-3,5-dichloro-N-[(1,3-thiazol-2-yl)methyl]thieno[3,2-b]pyridin-7-amine]	***** (≤0.005 μM is indicated by five stars (*****))	***** (>4.9 is indicated by five stars (*****))
CC[C@H](N)Cc1sc2c(NCc3cccs3)cc(Cl)nc2c1Cl [Compound 83, 2-[(2S)-2-aminobutyl]-3,5-dichloro-N-[(thiophen-2-yl)methyl]thieno[3,2-b]pyridin-7-amine]	***** (≤0.005 μM is indicated by five stars (*****))	***** (>4.9 is indicated by five stars (*****))
N[C@@H](CF)Cc1sc2c(NCc3cccs3)cc(Cl)nc2c1Cl [Compound 84, 2-[(2R)-2-amino-3-fluoropropyl]-3,5-dichloro-N-[(thiophen-2-yl)methyl]thieno[3,2-b]pyridin-7-amine]	***** (≤0.005 μM is indicated by five stars (*****))	***** (>4.9 is indicated by five stars (*****))
CC[C@H](N)Cc1sc2c(NCc3nccs3)cc(Cl)nc2c1C [Compound 85, 2-[(2S)-2-aminobutyl]-5-chloro-3-methyl-N-[(1,3-thiazol-2-yl)methyl]thieno[3,2-b]pyridin-7-amine]	***** (≤0.005 μM is indicated by five stars (*****))	***** (>4.9 is indicated by five stars (*****))
N[C@@H](CF)Cc1sc2c(NCc3nccs3)cc(Cl)nc2c1C1CC1 [Compound 87, 2-[(2R)-2-amino-3-fluoropropyl]-5-chloro-3-cyclopropyl-N-[(1,3-thiazol-2-yl)methyl]thieno[3,2-b]pyridin-7-amine]	*** (between >0.02 μM and ≤0.5 μM is indicated by three stars (***))	*** (between >2.9 and ≤3.9 is indicated by three stars (***))
N[C@@H](CCF)Cc1sc2c(NCc3nccs3)cc(Cl)nc2c1Br [Compound 88, 2-[(2S)-2-amino-4-fluorobutyl]-3-bromo-5-chloro-N-[(1,3-thiazol-2-yl)methyl]thieno[3,2-b]pyridin-7-amine]	***** (≤0.005 μM is indicated by five stars (*****))	***** (>4.9 is indicated by five stars (*****))
N[C@@H](CCO)Cc1sc2c(NCc3nccs3)cc(Cl)nc2c1Br [Compound 89, (3S)-3-amino-4-(3-bromo-5-chloro-7-{[(1,3-thiazol-2-yl)methyl]amino}thieno[3,2-b]pyridin-2-yl)butan-1-ol]	***** (≤0.005 μM is indicated by five stars (*****))	***** (>4.9 is indicated by five stars (*****))
N[C@@H](CF)Cc1sc2c(NCc3nccs3)cc(Cl)nc2c1Cl [Compound 90, 2-[(2R)-2-amino-3-fluoropropyl]-3,5-dichloro-N-[(1,3-thiazol-2-yl)methyl]thieno[3,2-b]pyridin-7-amine]	***** (≤0.005 μM is indicated by five stars (*****))	***** (>4.9 is indicated by five stars (*****))
Cc1c(C[C@@H](N)CF)sc2c(NCc3cccs3)cc(Cl)nc12 [Compound 91, 2-[(2R)-2-amino-3-fluoropropyl]-5-chloro-3-methyl-N-[(thiophen-2-yl)methyl]thieno[3,2-b]pyridin-7-amine]	***** (≤0.005 μM is indicated by five stars (*****))	***** (>4.9 is indicated by five stars (*****))
Cc1c(C[C@@H](N)CCF)sc2c(NCc3cccs3)cc(Cl)nc12 [Compound 92, 2-[(2S)-2-amino-4-fluorobutyl]-5-chloro-3-methyl-N-[(thiophen-2-yl)methyl]thieno[3,2-b]pyridin-7-amine]	***** (≤0.005 μM is indicated by five stars (*****))	***** (>4.9 is indicated by five stars (*****))
N[C@@H](CCF)Cc1sc2c(NCc3ccco3)cc(Cl)nc2c1Cl [Compound 93, 2-[(2S)-2-amino-4-fluorobutyl]-3,5-dichloro-N-[(furan-2-yl)methyl]thieno[3,2-b]pyridin-7-amine]	***** (≤0.005 μM is indicated by five stars (*****))	***** (>4.9 is indicated by five stars (*****))
N[C@@H](CF)Cc1sc2c(NCc3ccco3)cc(Cl)nc2c1Cl [Compound 94, 2-[(2R)-2-amino-3-fluoropropyl]-3,5-dichloro-N-[(furan-2-yl)methyl]thieno[3,2-b]pyridin-7-amine]	***** (≤0.005 μM is indicated by five stars (*****))	**** (between >3.9 and ≤4.9 is indicated by four stars (****))
